Laboratory results reported in patent US9822414B2, “In vitro method for predicting in vivo genotoxicity of chemical compounds” (priority 2011, dated 2017).
Where “and” joins values, the source holds several entries; their conditions need not be identical. Identical values can stand only once. Like-named read-outs stand apart in the source and are kept apart here.

Key:
rodents = settings: cited from earlier work
PWWP2B = assay: Gene expression of PWWP2B in HepG2 cells exposed to compound (microarray, log2 treatment:control ratio); format: cell-based, human
[1] = tested on: conventional in vitro genotoxicity assays; settings: cited from earlier work
HepG2 cell [2] = tested on: HepG2 cell
Salmonella typhimurium = settings: cited from earlier work
HepG2 cell [3] = assay: Class prediction of in vivo genotoxicity by the method of the invention (Ames stratification plus three-gene expression in HepG2); settings: for Prediction (class prediction results using the method of the invention): 62 compounds, three replicates, HepG2 24 h; for At least ⅔ genes +?: per single measurement, GTX when at least two out of three genes above reference value
SLC40A1 = assay: Gene expression of SLC40A1 in HepG2 cells exposed to compound (microarray, log2 treatment:control ratio); format: cell-based, human; settings: HepG2 cells; for Log2 treatment: control ratio SLC40A1: 24 h exposure, Ames negative compounds, one line per replicate of triplicate experiments; for SLC40A1: expression versus reference value, single measurement of three
PNMA6A = assay: Gene expression of PNMA6A in HepG2 cells exposed to compound (microarray, log2 treatment:control ratio); format: cell-based, human; settings: HepG2 cells; for Log2 treatment: control ratio PNMA6A: 24 h exposure, Ames negative compounds, one line per replicate of triplicate experiments; for PNMA6A: expression versus reference value, single measurement of three
C10orf65/HOGA1 = assay: Gene expression of C10orf65/HOGA1 in HepG2 cells exposed to compound (microarray, log2 treatment:control ratio); format: cell-based, human; settings: for Log2 treatment: control ratio C10orf65/HOGA1: 24 h exposure, Ames negative compounds, one line per replicate of triplicate experiments; for C10orf65/HOGA1: expression versus reference value, single measurement of three
LOC100505880 = assay: Gene expression of LOC100131914/LOC100505880 in HepG2 cells exposed to compound (microarray, log2 treatment:control ratio); format: cell-based, human
[4] = positive when at least one in vivo assay (MN, CA) positive, equivocal considered positive
[5] = standard in vivo genotoxicity designation

SMILES	In vitro GTX [1]	Ames (Salmonella typhimurium)	Prediction (class prediction results using the method of the invention) (HepG2 cell [3])	Standard (rodents; [5])	Log2 treatment: control ratio SLC40A1 (SLC40A1)	SLC40A1 (SLC40A1)	Log2 treatment: control ratio PNMA6A (PNMA6A)	Log2 treatment: control ratio C10orf65/HOGA1 (C10orf65/HOGA1)	C10orf65/HOGA1 (C10orf65/HOGA1)	PNMA6A (PNMA6A)	other results
OCCCl [2-Cl]	+										Standard (in vivo genotoxicity designation) (rodents; in vivo): NGTX; PWWP2B above or below the reference value (PWWP2B): + (Plus sign indicates a value above the reference value); Results in the conventional in vitro genotoxicity assays ([1]; see Table 5): positive results
CC(=O)Nc1ccc2c(c1)Cc1ccccc1-2 [2AAF]	+	+	GTX+								Standard (in vivo genotoxicity designation) (rodents; in vivo): GTX; In vivo GTX (rodents; [4]): +; Average result over three measurements (HepG2 cell [2]): GTX; Log2 treatment: control ratio PWWP2B (PWWP2B): −0.045 and −0.14 and 0.042
Oc1cccc2cccnc12 [8HQ]	+	+	GTX+								Standard (in vivo genotoxicity designation) (rodents; in vivo): NGTX; Average result over three measurements (HepG2 cell [2]): GTX; Log2 treatment: control ratio PWWP2B (PWWP2B): 0.014 and −0.165 and −0.069
CC1=CC(=O)[N-]S(=O)(=O)O1.[K+] [ASK]	−	−	NGTX	NGTX	−0.348 and −0.221 and 0.08	− (below the reference value)	0.264 and 0.161 and −0.677	0.014 and −0.015 and 0.083	− (below the reference value)		
Nc1ccccc1C(=O)O [AnAc]	+	−	NGTX	NGTX		− (below the reference value)			− (below the reference value)		Log2 treatment: control ratio SLC40A1 (SLC40A1; listed as AA): −0.174 and −0.49 and 0.007; Log2 treatment: control ratio PNMA6A (PNMA6A; listed as AA): 0.167 and −0.628 and 0.562; Log2 treatment: control ratio C10orf65/HOGA1 (C10orf65/HOGA1; listed as AA): −0.045 and −0.061 and 0.002
Clc1ccc(C(c2ccc(Cl)cc2)C(Cl)(Cl)Cl)cc1 [DDT]	−	−	NGTX	NGTX	0.685 and 0.118 and 0.493		−0.223 and 0.118 and −0.515	−0.925 and 0.469 and −0.025		− (below the reference value)	
CCN(CC)N=O [DEN]	+										Standard (in vivo genotoxicity designation) (rodents; in vivo): GTX; In vivo GTX (rodents; [4]): +; PWWP2B above or below the reference value (PWWP2B): + (Plus sign indicates a value above the reference value); LOC100505880 above or below the reference value (LOC100505880): + (Plus sign indicates a value above the reference value)
CCOP(=S)(OCC)Oc1cc(C)nc(C(C)C)n1 [DZN]	−	−	NGTX	NGTX	0.569 and 0.773 and 1.44	+ (above the reference value)	−0.352 and −0.624 and −0.03	−1.12 and −0.738 and −1.077	− (below the reference value)	− (below the reference value)	
OC[C@@H](O)[C@@H](O)[C@H](O)[C@H](O)CO [Dman]	−	−	NGTX	NGTX	0.005 and −0.155 and −0.035	− (below the reference value)	−0.035 and 0.459 and 0.01	0.022 and −0.159 and 0.023	− (below the reference value)		
C[C@]12CC[C@@H]3c4ccc(O)cc4CC[C@H]3[C@@H]1CC[C@@H]2O [E2, Estradiol]			NGTX			− (below the reference value)				− (below the reference value)	
C=CC(=O)OCC [EtAc, Ethylacrylate]	+	−	GTX		−0.448 and 0.634 and 0.031		0.375 and 0.243 and 0.409	0.391 and 0.429 and 0.624	+ (above the reference value)		Standard (rodents; in vivo): NGTX; Average result over three measurements (HepG2 cell [3]): GTX; At least ⅔ genes +? (HepG2 cell [3]): GTX
CCc1ccccc1 [EthylB]	+	−	NGTX	NGTX	−0.23 and −0.141 and 0.295	− (below the reference value)	0.313 and 0.434 and 0.392	−0.18 and 0.116 and −0.084	− (below the reference value)	+ (above the reference value)	
CCC1(c2ccccc2)C(=O)NC(=O)NC1=O [PhB]	+	+									In vivo GTX (rodents; in vivo): −; Standard (in vivo genotoxicity designation) (rodents; in vivo): NGTX; At least ⅔ genes +? (HepG2 cell [2]): NGTX; Average result over three measurements (HepG2 cell [2]): NGTX; Classification of NGTX compounds by the method of the invention (false positives) (HepG2 cell [2]): misclassification; Prediction (class prediction results using the method of the invention) (HepG2 cell [2]): NGTX; Log2 treatment: control ratio PWWP2B (PWWP2B): −0.169 and −0.272 and −0.154; PWWP2B above or below the reference value (PWWP2B): − (minus sign indicates a value below the reference value); LOC100505880 above or below the reference value (LOC100505880): − (minus sign indicates a value below the reference value); Log2 treatment: control ratio LOC100505880 (LOC100505880): −0.154 and −0.38 and −0.303; Results in the conventional in vitro genotoxicity assays [1]: positive results
CCOc1ccc(NC(C)=O)cc1 [Phen]	+	−	NGTX	NGTX	−0.646 and 0.127 and −0.048	− (below the reference value)	−0.023 and 0.218 and −0.237	0.043 and 0.056 and 0.034	− (below the reference value)	− (below the reference value)	
Oc1cccc(O)c1 [RR, Resorcinol]	+		GTX	NGTX		+ (above the reference value)			+ (above the reference value)	+ (above the reference value)	Ames (Salmonella typhimurium; Ames results based on NTP data): −; Average result over three measurements (HepG2 cell [3]): GTX; Classification of NGTX compounds by the method of the invention (false positives) (HepG2 cell [3]; in vivo NGTX compounds): misclassification; At least ⅔ genes +? (HepG2 cell [3]): GTX; Results in the conventional in vitro genotoxicity assays ([1]; see Table 5): positive results
CCC[CH2][Sn]([CH2]CCC)([CH2]CCC)[O][Sn]([CH2]CCC)([CH2]CCC)[CH2]CCC [TBTO]	+	−	GTX	GTX	0.604 and 1.649 and 0.208		0.909 and 0.663 and 0.456	0.426 and 0.098 and 0.858		+ (above the reference value)	In vivo GTX (rodents; [4]): +; Average result over three measurements (HepG2 cell [3]): GTX; At least ⅔ genes +? (HepG2 cell [3]): GTX
Clc1cc2c(cc1Cl)Oc1cc(Cl)c(Cl)cc1O2 [TCDD]	−	−	NGTX	NGTX	0.169 and −0.21 and 0.104	− (below the reference value)	−0.041 and 0.26 and 0.072	−0.107 and 0.056 and 0.151			
CCCCCCCCCCCCCC(=O)O[C@@H]1[C@@H](C)[C@@]2(O)[C@@H](C=C(CO)C[C@]3(O)C(=O)C(C)=C[C@@H]23)[C@H]2C(C)(C)[C@]12OC(C)=O [TPA]	−	−	NGTX	NGTX	−0.327 and 1.338 and 0.199		−0.493 and −0.137 and −0.26	0.108 and −0.423 and 0.14	− (below the reference value)	− (below the reference value)	
Cc1cccc(Nc2cc(Cl)nc(SCC(=O)O)n2)c1C [WY]	−				−0.312 and −0.393 and −0.643	− (below the reference value)	0.059 and −0.515 and 1.157	−0.061 and −0.158 and −0.053	− (below the reference value)		In vivo GTX (rodents; in vivo): −; Standard (rodents; in vivo): NGTX; At least ⅔ genes +? (HepG2 cell [2]): NGTX; Average result over three measurements (HepG2 cell [2]): NGTX; Prediction (class prediction results using the method of the invention) (HepG2 cell [2]): NGTX; Ames (Salmonella typhimurium; Ames results based on NTP data): −
